In PubChem BioAssay AID1963831 (Molecular Pharmacology Branch, DTP, NCI, 2024):
pIC50: −log10 of the molar value.

Test system: 889142-216-R-J1-PDC complex spheroid viability
Assay: Anticancer human tumor 889142-216-R-J1-PDC patient-derived bladder carcinoma cell line growth inhibition [POLQ]
Conditions: for pIC50: curve of first compound; for viability, T/C: stronger effect = lower value
Summary of the method: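 Three-cell-type spheroids modelling solid tumor plus stroma served as the readout system; POL inhibitors were tested individually and in combination, concentration ranges set by clinical Cmax where known.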
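Further: spheroids exposed to compounds for seven days.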
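Wherever viability, T/C is given: 100% = DMSO vehicle control viability.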

CC(=O)O[C@H]1C(=O)[C@@]2(C)[C@H]([C@H](OC(=O)c3ccccc3)[C@]3(O)C[C@H](OC(=O)[C@H](O)[C@@H](NC(=O)c4ccccc4)c4ccccc4)C(C)=C1C3(C)C)[C@]1(OC(C)=O)CO[C@@H]1C[C@@H]2O + COC1C(OC(N)=O)C(O)C(Oc2ccc3c(O)c(NC(=O)c4ccc(O)c(CC=C(C)C)c4)c(=O)oc3c2C)OC1(C)C
pIC50 (second compound 0.0316 µM): > 8.02 | pIC50 (second compound 0.1 µM): > 8.02 | pIC50 (second compound 0.316 µM): > 8.02 | pIC50 (second compound 1 µM): > 8.02 | pIC50 (second compound 3.16 µM): > 8.02 | pIC50 (second compound 10 µM): > 8.02 | viability, T/C (second compound 0.0316 µM, first compound 0.00949 µM): 42% | viability, T/C (second compound 0.0316 µM, first compound 0.03 µM): 37.3% | viability, T/C (second compound 0.0316 µM, first compound 0.0949 µM): 36.2% | viability, T/C (second compound 0.0316 µM, first compound 0.3 µM): 35% | viability, T/C (second compound 0.0316 µM, first compound 0.949 µM): 40.6% | viability, T/C (second compound 0.0316 µM, first compound 3 µM): 43% | viability, T/C (second compound 0.1 µM, first compound 0.00949 µM): 40% | viability, T/C (second compound 0.1 µM, first compound 0.03 µM): 29.9% | viability, T/C (second compound 0.1 µM, first compound 0.0949 µM): 40.6% | viability, T/C (second compound 0.1 µM, first compound 0.3 µM): 34.2% | viability, T/C (second compound 0.1 µM, first compound 0.949 µM): 37.4% | viability, T/C (second compound 0.1 µM, first compound 3 µM): 38.5% | viability, T/C (second compound 0.316 µM, first compound 0.00949 µM): 38.3% | viability, T/C (second compound 0.316 µM, first compound 0.03 µM): 37.2% | viability, T/C (second compound 0.316 µM, first compound 0.0949 µM): 41.3% | viability, T/C (second compound 0.316 µM, first compound 0.3 µM): 32.9% | viability, T/C (second compound 0.316 µM, first compound 0.949 µM): 34% | viability, T/C (second compound 0.316 µM, first compound 3 µM): 37.4% | viability, T/C (second compound 1 µM, first compound 0.00949 µM): 39.9% | viability, T/C (second compound 1 µM, first compound 0.03 µM): 40% | viability, T/C (second compound 1 µM, first compound 0.0949 µM): 43.9% | viability, T/C (second compound 1 µM, first compound 0.3 µM): 37.5% | viability, T/C (second compound 1 µM, first compound 0.949 µM): 35.3% | viability, T/C (second compound 1 µM, first compound 3 µM): 39.7% | viability, T/C (second compound 3.16 µM, first compound 0.00949 µM): 39.1% | viability, T/C (second compound 3.16 µM, first compound 0.03 µM): 38.1% | viability, T/C (second compound 3.16 µM, first compound 0.0949 µM): 39% | viability, T/C (second compound 3.16 µM, first compound 0.3 µM): 39.7% | viability, T/C (second compound 3.16 µM, first compound 0.949 µM): 41.2% | viability, T/C (second compound 3.16 µM, first compound 3 µM): 40.4% | viability, T/C (second compound 10 µM, first compound 0.00949 µM): 41.1% | viability, T/C (second compound 10 µM, first compound 0.03 µM): 38.1% | viability, T/C (second compound 10 µM, first compound 0.0949 µM): 40.4% | viability, T/C (second compound 10 µM, first compound 0.3 µM): 45.2% | viability, T/C (second compound 10 µM, first compound 0.949 µM): 38.5% | viability, T/C (second compound 10 µM, first compound 3 µM): 39.5%
